Test results as given in patent US12643886B2 (Ontario Institute for Cancer Research (OICR), priority 2021, dated 2026).

How the values were obtained:
Type in all cases: biochemical
NUAK2 (h) = target: T1, NUAK2 (h) (Homo sapiens, UniProt Q9H093); assay: NUAK2 enzymatic assay (radiometric, Eurofins); details: full-length recombinant enzyme
T1 construct: This assay was done radiometrically using full-length, recombinant enzyme; purchased Eurofins
T1 sequence (Q9H093 1-628): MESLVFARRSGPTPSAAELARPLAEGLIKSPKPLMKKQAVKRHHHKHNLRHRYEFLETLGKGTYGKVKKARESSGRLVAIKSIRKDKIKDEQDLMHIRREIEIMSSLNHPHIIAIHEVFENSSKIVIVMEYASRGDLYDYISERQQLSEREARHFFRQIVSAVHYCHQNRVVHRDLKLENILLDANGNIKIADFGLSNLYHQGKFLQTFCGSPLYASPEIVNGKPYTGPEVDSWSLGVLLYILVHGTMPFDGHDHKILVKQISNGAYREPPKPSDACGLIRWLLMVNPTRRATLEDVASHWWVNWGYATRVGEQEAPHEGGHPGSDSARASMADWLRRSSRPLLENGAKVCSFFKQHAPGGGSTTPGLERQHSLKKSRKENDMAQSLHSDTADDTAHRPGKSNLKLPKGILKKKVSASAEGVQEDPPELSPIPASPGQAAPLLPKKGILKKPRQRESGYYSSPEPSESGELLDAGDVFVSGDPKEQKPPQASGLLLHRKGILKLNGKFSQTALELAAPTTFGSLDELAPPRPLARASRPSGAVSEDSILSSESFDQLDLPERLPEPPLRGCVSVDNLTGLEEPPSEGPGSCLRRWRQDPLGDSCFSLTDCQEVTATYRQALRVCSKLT
Procedure, shortened: (§1)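 Full-length recombinant NUAK2 incubated 40 min at room temperature in 8 mM MOPS pH 7.0, 0.2 mM EDTA, 10 mM magnesium acetate, 300 μM peptide substrate and 33P-ATP. Stopped with 0.5% phosphoric acid; filter-bound label counted by scintillation. IC50 reported as ranges; NUAK1 and Aurora A served as counter-screens.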

NUAK1 = target: T2, NUAK1 (Homo sapiens, UniProt O60285); assay: Counter-screen against NUAK1
T2 sequence (O60285 1-661): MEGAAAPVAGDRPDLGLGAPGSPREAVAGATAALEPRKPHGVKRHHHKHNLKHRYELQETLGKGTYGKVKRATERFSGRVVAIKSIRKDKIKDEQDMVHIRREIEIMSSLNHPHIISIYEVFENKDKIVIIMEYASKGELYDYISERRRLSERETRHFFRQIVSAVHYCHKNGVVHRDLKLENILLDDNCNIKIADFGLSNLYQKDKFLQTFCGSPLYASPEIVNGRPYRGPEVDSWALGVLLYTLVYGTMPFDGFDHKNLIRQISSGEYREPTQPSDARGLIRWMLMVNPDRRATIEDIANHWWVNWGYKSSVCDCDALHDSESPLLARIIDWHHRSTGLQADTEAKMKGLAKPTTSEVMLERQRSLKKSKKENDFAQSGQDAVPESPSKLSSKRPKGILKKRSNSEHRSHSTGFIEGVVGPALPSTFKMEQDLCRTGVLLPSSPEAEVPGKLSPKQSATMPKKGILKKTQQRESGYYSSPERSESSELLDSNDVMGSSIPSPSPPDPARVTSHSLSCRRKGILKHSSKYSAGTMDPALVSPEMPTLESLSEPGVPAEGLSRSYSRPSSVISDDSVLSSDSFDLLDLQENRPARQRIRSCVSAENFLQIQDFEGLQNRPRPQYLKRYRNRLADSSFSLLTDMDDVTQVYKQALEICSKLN
Procedure, shortened: as §1

Aurora A = target: T3, Aurora A (Homo sapiens, UniProt O14965); assay: Counter-screen against Aurora A; details: read-out: AUR-A (IC50)
T3 sequence (O14965 1-403): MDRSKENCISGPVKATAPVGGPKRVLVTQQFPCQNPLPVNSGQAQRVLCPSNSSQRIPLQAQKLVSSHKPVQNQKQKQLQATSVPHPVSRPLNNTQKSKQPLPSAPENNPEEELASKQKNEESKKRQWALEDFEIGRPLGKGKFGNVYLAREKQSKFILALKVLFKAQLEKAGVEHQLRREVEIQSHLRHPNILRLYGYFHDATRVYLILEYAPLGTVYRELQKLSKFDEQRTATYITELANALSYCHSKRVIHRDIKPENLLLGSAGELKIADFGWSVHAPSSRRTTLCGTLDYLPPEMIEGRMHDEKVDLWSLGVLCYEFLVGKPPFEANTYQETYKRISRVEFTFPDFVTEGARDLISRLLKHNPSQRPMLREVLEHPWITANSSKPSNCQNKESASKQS
Procedure, shortened: as §1

Row | SMILES | IC50 (NUAK2 (h)) [nM] | IC50 (NUAK1) [nM] | IC50 (Aurora A) [nM]
1 | C[C@@H]1CN(C2CCN(c3ccc(Nc4ncc(C(F)(F)F)c(Nc5cccc6c5C(=O)NC6)n4)c(OC(F)F)c3)CC2)C[C@H](C)N1C [Compound I-48, 7-((2-((2-(difluoromethoxy)-4-(4-((3S,5R)-3,4,5-trimethylpiperazin-1-yl)piperidin-1-yl)phenyl)amino)-5-(trifluoromethyl)pyrimidin-4-yl)amino)isoindolin-1-one] | 0.1 to 10 | 11 to 100 | 101 to 1000
2 | C[C@@H]1CN(c2ccc(Nc3ncc(C(F)(F)F)c(Nc4cccc5c4C(=O)NC5)n3)c(OC(F)F)c2)C[C@H](C)N1 [Compound I-49, 7-((2-((2-(difluoromethxoy)-4-((3S,5R)-3,5-dimethylpiperazin-1-yl)phenyl)amino)-5-(trifluoromethyl)pyrimidin-4-yl)amino)isoindolin-1-one] | 0.1 to 10 | 11 to 100 | > 1000
3 | C[C@H]1CN(c2ccc(Nc3ncc(C(F)(F)F)c(Nc4cccc5c4C(=O)NC5)n3)c(OC(F)F)c2)CCN1 [Compound I-50, (S)-7-((2-((2-(difluoromethoxy)-4-(3-methylpiperazin-1-yl)phenyl)amino)-5-(trifluoromethyl)pyrimidin-4-yl)amino)isoindolin-1-one] | 0.1 to 10 | 11 to 100 | > 1000
4 | CN1CCN(c2ccc(Nc3ncc(Cl)c(Nc4cccc5c4C(=O)NC5)n3)cc2)CC1 [Compound I-51, 7-((5-chloro-2-((4-(4-methylpiperazin-1-yl)phenyl)amino)pyrimidin-4-yl)amino)isoindolin-1-one] | 0.1 to 10 | 0.1 to 10 | 0.1 to 10
5 | O=C1NCc2cccc(Nc3nc(Nc4cc5c(cc4Cl)CNCC5)ncc3C(F)(F)F)c21 [Compound I-52, 7-((2-((7-chloro-1,2,3,4-tetrahydroisoquinolin-6-yl)amino)-5-(trifluoromethyl)pyrimidin-4-yl)amino)isoindolin-1-one] | 11 to 100 | 11 to 100 | 11 to 100
6 | CN1CCN(c2ccc(Nc3ncc(C(F)(F)F)c(Nc4cccc5c4C(=O)NC5)n3)c(OC(F)(F)F)c2)CC1 [Compound I-53, 7-((2-((4-(4-methylpiperazin-1-yl)-2-(trifluoromethoxy)phenyl)amino)-5-(trifluoromethyl)pyrimidin-4-yl)amino)isoindolin-1-one] | 11 to 100 | 101 to 1000 | > 1000
7 | O=C1NCc2cccc(Nc3nc(Nc4ccc(N5CCCNCC5)cc4OC(F)F)ncc3C(F)(F)F)c21 [Compound I-55, 7-((2-((4-(1,4-diazepan-1-yl)-2-(difluoromethoxy)phenyl)amino)-5-(trifluoromethyl)pyrimidin-4-yl)amino)isoindolin-1-one] | 0.1 to 10 | 11 to 100 | > 1000
8 | C[C@@H]1CN(c2ccc(Nc3ncc(C(F)(F)F)c(Nc4cccc5c4C(=O)NC5)n3)c(OC(F)F)c2)CCN1 [Compound I-57, (R)-7-((2-((2-(difluoromethoxy)-4-(3-methylpiperazin-1-yl)phenyl)amino)-5-(trifluoromethyl)pyrimidin-4-yl)amino)isoindolin-1-one] | 0.1 to 10 | 11 to 100 | > 1000
9 | O=C1NCc2cccc(Nc3nc(Nc4ccc(N5CCC6(CCNCC6)CC5)cc4OC(F)F)ncc3C(F)(F)F)c21 [Compound I-58, 7-((2-((2-(difluoromethoxy)-4-(3,9-diazaspiro[5.5]undecan-3-yl)phenyl)amino)-5-(trifluoromethyl)pyrimidin-4-yl)amino)isoindolin-1-one] | 11 to 100 | 11 to 100 | 101 to 1000
10 | O=C1NCc2cccc(Nc3nc(Nc4ccc(N5CCOCC5)cc4OC(F)F)ncc3C(F)(F)F)c21 [Compound I-60, 7-((2-((2-(difluoromethoxy)-4-morpholinophenyl)amino)-5-(trifluoromethyl)pyrimidin-4-yl)amino)isoindolin-1-one] | 11 to 100 | 11 to 100 | 101 to 1000
11 | CCN(CC)CCOc1ccc(Nc2ncc(C(F)(F)F)c(Nc3cccc4c3C(=O)NC4)n2)cc1 [Compound I-61, 7-((2-((4-(2-(diethylamino)ethoxy)phenyl)amino)-5-(trifluoromethyl)pyrimidin-4-yl)amino)isoindolin-1-one] | 11 to 100 | 11 to 100 | 101 to 1000
12 | CCN(CC)CCOc1ccc(Nc2ncc(Cl)c(Nc3cccc4c3C(=O)NC4)n2)cc1 [Compound I-62, 7-((5-chloro-2-((4-(2-(diethylamino)ethoxy)phenyl)amino)pyrimidin-4-yl)amino)isoindolin-1-one] | 0.1 to 10 | 0.1 to 10 | 11 to 100
13 | O=C1NCc2cccc(Nc3nc(Nc4ccc(N5C[C@H]6CC[C@@H](C5)N6)cc4OC(F)F)ncc3Cl)c21 [Compound I-64, 7-((2-((4-((1R,5S)-3,8-diazabicyclo[3.2.1]octan-3-yl)-2-(difluoromethoxy)phenyl)amino)-5-chloropyrimidin-4-yl)amino)isoindolin-1-one] | 0.1 to 10 | 11 to 100 | > 1000
14 | CC1(C)CN(c2ccc(Nc3ncc(C(F)(F)F)c(Nc4cccc5c4C(=O)NC5)n3)c(OC(F)F)c2)CCN1 [Compound I-65, 7-((2-((2-(difluoromethoxy)-4-(3,3-dimethylpiperazin-1-yl)phenyl)amino)-5-(trifluoromethyl)pyrimidin-4-yl)amino)isoindolin-1-one] | 0.1 to 10 | 101 to 1000 | 101 to 1000
15 | O=C1NCc2cccc(Nc3nc(Nc4ccc(N5C[C@@H]6C[C@H]5CN6)cc4OC(F)F)ncc3Cl)c21 [Compound I-66, 7-((2-((4-((1S,4S)-2,5-diazabicyclo[2.2.1]heptan-2-yl)-2-(difluoromethoxy)phenyl)amino)-5-chloropyrimidin-4-yl)amino)isoindolin-1-one] | 0.1 to 10 | 11 to 100 | 101 to 1000
16 | O=C1NCc2cccc(Nc3nc(Nc4ccc(N5CCC(N6CCNCC6)CC5)cc4OC(F)F)ncc3Cl)c21 [Compound I-67, 7-((5-chloro-2-((2-(difluoromethoxy)-4-(4-(piperazin-1-yl)piperidin-1-yl)phenyl)amino)pyrimidin-4-yl)amino)isoindolin-1-one] | 0.1 to 10 | 11 to 100 | 101 to 1000
17 | COc1nc(N2CCN(C)CC2)ccc1Nc1ncc(C(F)(F)F)c(Nc2cccc3c2C(=O)NC3)n1 [Compound I-68, 7-((2-((2-methoxy-6-(4-methylpiperazin-1-yl)pyridin-3-yl)amino)-5-(trifluoromethyl)pyrimidin-4-yl)amino)isoindolin-1-one] | 0.1 to 10 | 11 to 100 | 101 to 1000
18 | CN1CCCN(C2CCN(c3ccc(Nc4ncc(C(F)(F)F)c(Nc5cccc6c5C(=O)NC6)n4)c(OC(F)F)c3)CC2)CC1 [Compound I-69, 7-((2-((2-(difluoromethoxy)-4-(4-(4-methyl-1,4-diazepan-1-yl)piperidin-1-yl)phenyl)amino)-5-(trifluoromethyl)pyrimidin-4-yl)amino)isoindolin-1-one] | 0.1 to 10 | 11 to 100 | 101 to 1000
